Source: PubChem BioAssay (NCI)
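Growth conditions: 96-well plates. Treatment: test compound, 48 hours, 5 concentrations. Analysis: linear interpolation between bracketing concentrations; unreached endpoints set to highest concentration. Abbreviation: GI50, concentration required for 50% inhibition of growth. At the TGI there is no net growth.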

Columns and labels:
Experiment in all cases: NCI-60 cell line screen, 48 h
[1] = system: UACC-62 melanoma
[2] = system: K-562 leukemia
[3] = system: SNB-75 CNS
[4] = system: HT29 colon
[5] = system: KM12 colon
[6] = system: HCT-15 colon
[7] = system: SN12C renal
[8] = system: NCI-H23 lung
[9] = system: HCT-116 colon
[10] = system: A498 renal

Compound | TGI [1] [µM] | TGI [2] [µM] | TGI [3] [µM] | TGI [4] [µM] | TGI [5] [µM] | TGI [6] [µM] | TGI [7] [µM] | TGI [8] [µM] | TGI [9] [µM] | TGI [10] [µM] | GI50 [1] [µM] | GI50 [2] [µM] | GI50 [3] [µM] | GI50 [4] [µM] | GI50 [5] [µM] | GI50 [6] [µM] | GI50 [8] [µM] | GI50 [10] [µM]
Cc1cc2ncn(CC(=O)O)c2cc1C | > 100 | > 100 | > 100 | > 100 | > 100 | > 100 | > 100 | > 100 | > 100 | > 100 | – | – | – | – | – | – | – | –
COc1cc2c(cc1OC)C(CCN)=NCC2 | 34.4 | 43.3 | 33 | 41.3 | 40.2 | 38.9 | 35.1 | 34.3 | 33.7 | 62.8 | – | – | – | – | – | – | – | –
CCC1c2[nH]c3ccccc3c2C[C@H]2C(=O)NC(C)C(=O)N12 (stereo partly drawn) | > 100 | > 100 | > 100 | > 100 | > 100 | > 100 | > 100 | > 100 | > 100 | > 100 | – | – | – | – | – | – | – | –
O=C(CCCc1cccc2[nH]c3c(c12)CN(Cc1ccccc1)CC3)c1ccc(F)cc1 | > 100 | > 100 | > 100 | > 45.8 | > 100 | > 100 | > 100 | > 52.3 | > 100 | > 100 | – | – | – | – | – | – | – | –
Cc1ccc(C(=O)Nc2ccc(S(=O)(=O)O)c3cc(S(=O)(=O)O)cc(S(=O)(=O)O)c23)cc1NC(=O)c1cccc(NC(=O)Nc2cccc(C(=O)Nc3cc(C(=O)Nc4ccc(S(=O)(=O)O)c5cc(S(=O)(=O)O)cc(S(=O)(=O)O)c45)ccc3C)c2)c1 | > 100 | > 100 | > 100 | > 100 | > 100 | > 100 | > 100 | > 100 | > 100 | > 100 | – | – | – | – | – | – | – | –
Cc1nc2c(Cl)cc(Cl)cc2c2c1CCO2 | > 100 | > 100 | > 100 | > 100 | > 100 | > 100 | > 100 | > 100 | > 100 | > 100 | – | – | – | – | – | – | – | –
O=C1CCCC2=C1CC1=C(CCCC1=O)N2c1ccc(Cl)cc1 | > 100 | > 100 | > 100 | > 100 | > 100 | > 100 | > 100 | > 100 | > 100 | > 100 | – | – | – | – | – | – | – | –
COC(=O)[C@@]12CSC[C@]1(C(=O)OC)N[C@@H](c1ccccc1O)C2 | > 100 | > 100 | > 100 | > 100 | > 100 | > 100 | > 100 | > 100 | > 100 | > 100 | – | – | – | – | – | – | – | –
CC1OC(NCCNCCNC2OC(C)C(O)C(O)C2O)C(O)C(O)C1O (stereo not drawn) | > 100 | > 100 | > 100 | > 100 | > 100 | > 100 | > 100 | > 100 | > 100 | > 100 | – | – | – | – | – | – | – | –
NCCCn1c(Cl)nc2ccccc21 | > 100 | > 100 | > 100 | > 100 | > 100 | > 100 | > 100 | > 100 | > 100 | > 100 | – | – | – | – | – | – | – | –
O=C1c2c(c3c4cc(F)ccc4oc3c3[nH]c4ccccc4c23)C(=O)N1O | 3.41 | > 100 | 4.55 | > 100 | > 100 | > 100 | – | 8.45 | – | 5.2 | 1.48 | 2.09 | 0.0769 | 3.06 | 3.33 | 1.81 | 1.65 | 1.23
CCOC(CBr)OC1C(=O)OCC1(C)C (stereo not drawn) | > 100 | > 100 | > 100 | > 100 | > 100 | > 100 | > 100 | > 100 | > 100 | > 100 | – | – | – | – | – | – | – | –
CC1=C(C)C(=O)OC(C(C)(O)C2(O)CC3OC34C3CC(O)C56OC5C=CC(=O)C6(C)C3CCC42C)C1 (stereo not drawn) | 3.15 | > 100 | 20.3 | 4.2 | 7.54 | 3.85 | 14.4 | 8.64 | – | 7.81 | – | – | – | – | – | – | – | –
CCOC(=O)NC(Nc1ccc(F)cc1F)(C(F)(F)F)C(F)(F)F | > 100 | > 100 | > 100 | > 100 | > 100 | > 100 | > 100 | > 100 | > 100 | > 100 | – | – | – | – | – | – | – | –
Nc1cc(CO)cc(Nc2c3ccccc3nc3ccccc23)c1 | 34.5 | > 100 | 34.5 | 28.8 | 29.8 | 34.4 | 35.9 | 30.1 | 28.5 | 46.6 | – | – | – | – | – | – | – | –
CCN(CC)Cc1cc(N=Nc2c(O)ccc3c(N=Nc4ccc(O)c(CN(CC)CC)c4)c(O)ccc23)ccc1O | 16.2 | > 36.3 | 27.7 | 9.31 | > 21.9 | 4.7 | 17.6 | 12.7 | 4.38 | 27.9 | – | – | – | – | – | – | – | –
CC(=O)C1=C(C)N(c2ccccc2)C2(O)C3=C(C(=O)c4ccccc4C3=O)C(O)=CC12Cl (stereo not drawn) | 73.9 | > 100 | 16.2 | 8.45 | 24.6 | > 100 | 24 | 39.9 | > 100 | 30.5 | – | – | – | – | – | – | – | –
CC(C)(C)OC(=O)NC(CSCc1ccc(C(=O)c2ccccc2)cc1)C(=O)N1CCN(CCCCN2c3ccccc3Sc3cc(N=[N+]=[N-])ccc32)CC1 (stereo not drawn) | > 100 | > 100 | > 100 | > 100 | > 100 | > 100 | > 100 | > 100 | > 100 | > 100 | – | – | – | – | – | – | – | –
O=C(O)c1ccc2c(O)c(O)ccc2c1 | – | > 63.6 | 22.4 | 21.2 | 31.3 | 55 | 27.7 | 50.5 | 79.7 | 97.9 | – | – | – | – | – | – | – | –
O=S1(=O)OCCOS(=O)(=O)C1(F)Cc1ccccc1 | > 100 | > 100 | > 100 | > 100 | – | > 100 | > 100 | > 100 | > 100 | > 100 | – | – | – | – | – | – | – | –
